# Source: patent publication US20260199309A1, “COMPOUNDS FOR THE TREATMENT OF CENTRA NERVOUS SYSTEM DISORDERS” (Autifony Therapeutics Limited, priority 2022, published 2026)
# Legend:
# CYP1A2 = CYP1A2 (Homo sapiens, UniProt P05177); assay: CYP450 inhibition, pro-fluorescent probe substrate (1A2/ER)
# CYP3A4 [1] = target: T1, CYP3A4 (Homo sapiens, UniProt P08684); assay: CYP450 inhibition, Vivid Baculosomes (3A4/DBOMF); type: in vitro ADME; details: substrate DBOMF, top concentration 5.00E-05, read-out: CYP3A4DBOMF
# T1 construct: purchased
# T1 sequence (P08684 whole entry): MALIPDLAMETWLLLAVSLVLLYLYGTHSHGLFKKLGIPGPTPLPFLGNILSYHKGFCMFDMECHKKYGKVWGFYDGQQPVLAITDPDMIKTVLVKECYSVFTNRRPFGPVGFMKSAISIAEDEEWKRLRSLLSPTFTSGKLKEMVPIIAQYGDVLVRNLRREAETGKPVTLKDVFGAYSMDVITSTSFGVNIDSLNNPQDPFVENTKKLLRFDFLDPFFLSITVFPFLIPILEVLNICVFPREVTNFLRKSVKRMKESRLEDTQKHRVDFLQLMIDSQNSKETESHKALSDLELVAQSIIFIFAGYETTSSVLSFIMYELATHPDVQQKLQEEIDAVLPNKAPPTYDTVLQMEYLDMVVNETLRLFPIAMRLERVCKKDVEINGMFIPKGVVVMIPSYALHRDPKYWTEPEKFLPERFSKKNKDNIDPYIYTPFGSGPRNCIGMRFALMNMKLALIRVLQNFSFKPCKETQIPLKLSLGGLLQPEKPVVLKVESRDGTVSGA
# From the text: The method uses recombinant human CYP450 to metabolize pro-fluorescent probe substrates to fluorescent products. IC50 values for the effect of test compounds on the metabolism of these probe substrates provides a measure of the potency of inhibition of individual CYP450 isoforms.
# The described assays measure in vitro inhibitory effects (pIC50) of compounds at the human P450 isoforms (1A2, 2C8, 2C9, 2C19, 2D6, 3A4) expressed in recombinant microsomes. Pro-fluorescent probe substrates are metabolized to fluorescent products by the enzymes.
# Fluorescence is measured in kinetic mode (1 read/min for 10 min) and the fluorescence rate is calculated. Data are normalized to controls: DMSO represents 0% effect (i.e. no inhibition), while 10 μM Miconazole is set to 100% effect (i.e. complete inhibition).
# Inhibition of the fluorescent signal determined by P450 […] indicates antagonist activity of the compound and allows for the calculation of the compound plC50.
# CRCs of compounds are run on two different test occasions (n=2) by preparing serial dilutions from the same compound stock solution. Details of the solutions are outlined in Table 6:
# Test compound serial dilutions 1 to 3 were performed from a 10 mM stock solution in DMSO by Biomek FX to generate 10 point CRC. 100% DMSO was used for assay low controls. 10 mM (2 mM for 3A4/DBOMF, 2C8/DBOMF assay only) miconazole solution in DMSO was used as assay high controls. The final concentrations of the 10 point CRCs of test compounds in the assay plate were 5.00E-05; 1.67E-05; 5.56E-06; 1.85E-06; 6.17E-07; 2.06E-07; 6.86E-08; 2.29E-08; 7.62E-09 and 2.54E-09, respectively.
# The CYP3A4 and CYP2C8 were assayed using the Vivid CYP3A4 Baculosomes, CYP2C8 Baculosomes and Vivid DBOMF Substrate. […]
# 10 μl/well from compound plate was added and incubated for 10 min at 37° C. on a plate shaker. […] The plate was transferred into the fluorescent plate reader (EnVision, Wallac) immediately within 2 min and monitor fluorescence every minute for 10 (Excitation 485, Emission 535 and Mirror 505 FITC). […]
# The inhibition effect was expressed as percentage. […]
# [2] = In vitro metabolic stability (CLint), human; type: in vitro ADME; details: intrinsic clearance, incubation 0-30 minutes at 37° C. with NADPH regenerating system
# Protocol: The objective of this study was to determine metabolic stability of test items in preclinical species and human liver microsomes. Verapamil and dextromethorphan were used as positive controls for microsomal incubation.
# Incubation medium was prepared by combining 11.2 mL of potassium phosphate monobasic and 38.8 mL of potassium phosphate dibasic, diluted to 1 L with water. Cryopreserved microsomes were thawed and kept on ice until use. Microsomes were then diluted in incubation to a protein concentration of 0.56 mg/mL. Cells were centrifuged, re-suspended in medium and counted by means of a haemocytometer. Cell viability was measured using the Trypan Blue exclusion test.
# NADPH regenerating system solution was prepared by dissolving 1.7 mg of NADP, 7.8 mg of G6P and 6 units of G6P-Dehydrogenase in 1 mL of 2% sodium bicarbonate solution (prepared by dissolving 20 g of NaHCO3 in 1 L of water).
# Test compounds were separately dissolved in DMF to obtain 10 mM stock solutions that were further diluted in water/acetonitrile 50/50 (v/v) to obtain the corresponding 50 uM working solutions. Verapamil and dextromethorphan were dissolved in DMF in order to obtain a 10 mM verapamil solution and 10 mM dextromethorphan solution. These solutions were then diluted in the incubation medium in order to obtain a 50 uM verapamil working solution and a 50 uM dextromethorphan working solution.
# 800 μL-aliquots of NADPH regenerating system were pre-warmed at 37° C. for 5 minutes. […]
# Metabolic stability was calculated from the peak area ratio of the remaining test compound with internal standard versus time. The intrinsic clearance (CLint) was determined from the first order elimination constant k (min^−1) (obtained from GraphPad by plotting the natural logarithm of the peak area ratio of the remaining test item with internal standard versus time), using the actual volume of the incubation V (mL), the amount of hepatocytes in the incubation M (million cells) and the hepatocellularity number per g liver Hn (120 for human).
# CYP3A4 [3] = target: T1, CYP3A4; assay: CYP450 inhibition, pro-fluorescent probe substrate (3A4/7BQ); type: in vitro ADME; details: recombinant human CYP450, substrate 7-BQ; top concentration 5.00E-05; read-out: CYP3A47BQ
# Sequence of CYP1A2 (P05177 whole entry): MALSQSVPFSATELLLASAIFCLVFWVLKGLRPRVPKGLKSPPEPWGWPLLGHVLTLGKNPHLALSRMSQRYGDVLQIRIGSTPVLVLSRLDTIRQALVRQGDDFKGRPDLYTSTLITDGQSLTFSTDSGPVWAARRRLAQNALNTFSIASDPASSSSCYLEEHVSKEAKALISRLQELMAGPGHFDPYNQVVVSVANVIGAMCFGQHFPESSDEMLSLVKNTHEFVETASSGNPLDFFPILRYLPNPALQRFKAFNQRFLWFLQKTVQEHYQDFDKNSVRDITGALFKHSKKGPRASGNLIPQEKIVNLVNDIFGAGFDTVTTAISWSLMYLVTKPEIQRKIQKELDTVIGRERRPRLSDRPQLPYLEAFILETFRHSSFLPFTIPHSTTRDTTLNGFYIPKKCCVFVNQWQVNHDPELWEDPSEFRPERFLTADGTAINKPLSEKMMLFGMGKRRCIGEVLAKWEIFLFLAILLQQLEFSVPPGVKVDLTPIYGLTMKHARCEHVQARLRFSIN
Structure (SMILES),IC50 (CYP1A2),IC50 (CYP3A4 [1]),CLi human [2],IC50 (CYP3A4 [3])
"Cc1ccc(Oc2ccc(N3C(=O)NC(C)(C)C3=O)c(N)n2)c2c1OCC21CC1 [Example 1, 3-[2-amino-6-(7-methylspiro[2H-benzofuran-3,1′-cyclopropane]-4-yl)oxy-3-pyridyl]-5,5-dimethyl-imidazolidine-2,4-dione]",> 50 µM,> 50 µM,1.1 mL/min/g liver,> 50 µM
"COc1nc(Oc2ccc(C)c3c2C2(CC2)CO3)ccc1N1C(=O)NC(C)(C)C1=O [Reference Example 2, reference compound]",> 50 µM,10.2 µM,2.0 mL/min/g liver,> 50 µM
"CC1(C)NC(=O)N(c2ccc(Oc3cccc(OC(F)(F)F)c3)nc2N)C1=O [Example 9, 3-[2-amino-6-[3-(trifluoromethoxy)phenoxy]-3-pyridyl]-5,5-dimethyl-imidazolidine-2,4-dione]",> 50 µM,> 50 µM,<0.5 mL/min/g liver,> 50 µM
